How the values were obtained:
human colonoids = test: Cytokine treatment of human colonoids, RNA-seq; type: cell-based; settings: human colonoids, 24 hours
Procedure: All patients provided informed consent (NRES/IRAS id:15/LO/1998). Subsequent establishment of human colonoids was performed as previously described by Sato et al (48). The crypts were cultured in growth medium containing advanced Dulbecco's modified Eagle's medium/F12, penicillin/streptomycin (100 units/mL), 10 mM HEPES, 2 mM Glutamax, supplements N2 (1×) and B27 (1×), 50 ng/mL mouse epidermal growth factor (all from Life Technologies; Carlsbad, Calif.), 1 mM N-acetylcysteine (Sigma-Aldrich; St. Louis, Mo.), 50% v/v Wnt3a conditioned medium, 10% v/v R-spondin-1 conditioned medium, 100 ng/mL murine recombinant noggin protein (Peprotech; Rocky Hill, N.J.), 10 nM gastrin (Sigma-Aldrich), 500 nM A83-01 (Bio-techne; Minneapolis, Minn.), 10 μM SB202190 (Sigma-Aldrich) and 10 mM Nicotinamide (Sigma-Aldrich). 10 μM Y-27632 (Sigma-Aldrich) was added to the culture medium for the initial 3 days. Medium was changed every 2 days. […] During the last 24 hours in differentiation medium, human colonoids were treated with human recombinant IL22 (10 ng/mL), IL17A (50 ng/mL), TNFα (10 ng/mL), IFNγ (20 ng/mL), IL13 (10 ng/mL) and IL22 (10 ng/mL)/IL17A (50 ng/mL) combination.
(§1) RNA extraction: Colonoids and LPMC were treated in a similar fashion. Cells were lysed and RNA was extracted using the RNAeasy kit (Qiagen; Hilden, Germany). This step was optimized balancing the effectiveness of elimination of DNA quantified (Qubit dsDNA HS assay kit) versus the loss of quantity of RNA (Qubit RNA BR assay kit). Optimal DNAse I concentration was determined to be ×5 the standard concentration. 500 ng of cDNA was then created using Revertaid cDNA synthesis kit (ThermoFisher) and diluted to a concentration of 6.25 ng/μl. Harvested colonoids were put in Qiazol and then RNA was extracted with the RNAeasy kit (Qiagen) as per manufacturer's guidelines. cDNA was created using the Revertaid cDNA synthesis kit (ThermoFisher).
Library preparation and sequencing: A total amount of 3 μg RNA per sample was used as input material for the RNA sample preparations. Sequencing libraries were generated using NEBNextR Ultra™ RNA Library Prep Kit for IlluminaR (NEB, Ipswich, Mass.) following manufacturer's recommendations and index codes were added to attribute sequences to each sample. Briefly, mRNA was purified from total RNA using poly-T oligo-attached magnetic beads. Fragmentation was carried out using divalent cations under elevated temperature in NEBNext First Strand Synthesis Reaction Buffer (5×). First strand cDNA was synthesized using random hexamer primer and M-MuLV Reverse Transcriptase (RNase H-). Second strand cDNA synthesis was subsequently performed using DNA Polymerase I and RNase H. Remaining overhangs were converted into blunt ends via exonuclease/polymerase activities. After adenylation of 3′ ends of DNA fragments, NEBNext Adaptor with hairpin loop structure were ligated to prepare for hybridization. In order to select cDNA fragments of preferentially 150˜200 bp in length, the library fragments were purified with AMPure XP system (Beckman Coulter, Brea, Calif.). Then 3 μl USER Enzyme (NEB) was used with size-selected, adaptor-ligated cDNA at 37° C. for 15 minutes followed by 5 minutes at 95° C. before PCR. Then PCR was performed with Phusion High-Fidelity DNA polymerase, Universal PCR primers and Index (X) Primer. At last, PCR products were purified (AMPure XP system) and library quality was assessed on the Agilent Bioanalyzer 2100 system. The clustering of the index-coded samples was performed on a cBot Cluster Generation System using HiSeq PE Cluster Kit cBot-HS (Illumina; San Diego, Calif.) according to the manufacturer's instructions. After cluster generation, the paired-end libraries were sequenced on an Illumina HiSeq platform. […]

[1] = test system: lamina propria mononuclear cells (LPMC); test: IL23 stimulation of LPMC from UC patients, RNA-seq; type: cell-based, human
Procedure: Human LPMC isolation: Colonic mucosal biopsies were obtained from UC patients (n=5) with endoscopically active disease (Mayo endoscopic subscore ≥2). LPMCs were isolated using a non-digestion, ‘walk out’ method previously published (Di Marco Barros et al., 2016, Cell 167, 203-218). In brief, 9 mm×9 mm×1.5 mm Cellfoam matrices (Cytomatrix PTY Ltd; Victoria, Australia) were autoclaved and incubated in 100 μg/mL rat tail collagen I (BD Biosciences; San Jose, Calif.) in PBS for 30 min at 37° C. and washed twice in PBS. Biopsies were washed for 20 min in 5 mL wash medium (RPMI 1640 10% FCS, β-mercaptoethanol, penicillin (500U/ml), streptomycin ([…]), metronidazole (5 mg/ml), gentamicin ([…], Sigma-Aldrich) and amphotericin 12.5 mg/ml (Thermo Fisher Scientific; Waltham, Mass.)). One endoscopic biopsy was placed on top of each matrix, which was then inverted and pressure was applied to crush the biopsy into the matrix. The matrices were placed into a 24-well plate (1 per well) and covered with 2 mL RPMI 1640 (supplemented with 10% FCS, β-mercaptoethanol, penicillin (100 U/ml), streptomycin ([…]), metronidazole (1 mg/ml), gentamicin (20 mg/ml), amphotericin (2.5 mg/ml)) and IL-2 (100U/mL, Novartis Pharmaceutical UK; London, United Kingdom). Cells were harvested and residual biopsy and empty wells were washed with PBS 0.02 mM HEPES. The cell suspension was passed through a […] nylon cell strainer, centrifuged at 400 g for 5 minutes.
After LPMC isolation, a cell count was performed using a hemochromocytometer and 200,000 cells were placed in each well of a 96 well round bottomed plate until the supply was exhausted. Complete media either with or without IL23 (10 ng/ml Biolegend; San Diego, Calif.) was added to each well to a total volume of 200 μl and incubated at 37° C. at 5% CO2 for 4 hours. Then cells from wells treated in the same condition were combined in a 1.5 ml RNAse free Eppendorf. The Eppendorfs were centrifuged at 1200 g for 5 minutes, the supernatant was removed and 800 μl Qiazol (Qiagen, Germany) added and mechanically homogenized using a needle and syringe.
as §1
Library preparation and sequencing: A total amount of 3 μg RNA per sample was used as input material for the RNA sample preparations. Sequencing libraries were generated using NEBNextR Ultra™ RNA Library Prep Kit for IlluminaR (NEB, Ipswich, Mass.) following manufacturer's recommendations and index codes were added to attribute sequences to each sample. Briefly, mRNA was purified from total RNA using poly-T oligo-attached magnetic beads. Fragmentation was carried out using divalent cations under elevated temperature in NEBNext First Strand Synthesis Reaction Buffer (5×). First strand cDNA was synthesized using random hexamer primer and M-MuLV Reverse Transcriptase (RNase H-). Second strand cDNA synthesis was subsequently performed using DNA Polymerase I and RNase H. Remaining overhangs were converted into blunt ends via exonuclease/polymerase activities. After adenylation of 3′ ends of DNA fragments, NEBNext Adaptor with hairpin loop structure were ligated to prepare for hybridization. […]

[2] = test system: patients with moderate-to-severe UC; test: UNIFI phase 3 trial: ustekinumab induction in UC patients stratified by baseline IL22 enrichment score; type: in vivo, human; settings: week 8
Description: Gene Set Variation Analysis: To test the activation of each of the cytokine regulated transcriptional programs we used gene set variation analysis (GSVA) (56) to probe whole transcriptional profiles of previously reposited datasets and the dataset generated in the context of the ustekinumab and golimumab trials programs.
UNIFI trial programme: The UNIFI trial was a randomized placebo-controlled phase 3 clinical trial evaluating the efficacy and safety of ustekinumab (NCT02407236) and has already been reported (43). In this study, for the first time, transcriptional data from biopsies were reported, which were correlated to clinical, endoscopic and biomarker data available from the UNIFI cohort. Colonic biopsies were sampled at defined time points after institution of treatment in a subset of patients and were immediately transferred to RNALater (Qiagen) and stored at −80° C. prior to RNA extraction. Whole genome transcriptomics were performed on the Affymetrix HG U133 PM array. Clinical data was recorded prospectively according to the trial protocol. Outcomes reported include: clinical remission (defined as a total Mayo score of ≤2 and no subscore >1) and deep remission (which required both histologic improvement (defined as neutrophil infiltration in <5% of crypts, no crypt destruction, and no erosions, ulcerations, or granulation tissue) and endoscopic improvement) at week 8. Analysis presented is based on all patients receiving ustekinumab regardless of dose (130 mg and 6 mg/kg).
Next, it was determined whether core transcripts regulated by the IL23/IL22 axis were differentially expressed in diseased tissue of UC patients. Gene Set Variation Analysis (GSVA) is an algorithm which tests whether entire transcriptional programmes are enriched in complex and heterogeneous samples. […] Endoscopically acquired colonic biopsies were sampled from the sigmoid colon of patients with moderate-to-severe UC (n=550) enrolled to the UNIFI phase III clinical trial, a randomized, placebo controlled trial evaluating the efficacy of ustekinumab, a monoclonal antibody (mAb) that blocks the p40 subunit shared by the human IL-12 and IL-23 cytokines. […] These findings were replicated in 2 additional independent cohorts of UC patients where transcriptomic data was available in publicly accessible repositories (GSE50971 and GSE16879, FIG. 4A). […] Consistent with IL23 being an important driver of IL22, there was a significant correlation between the enrichment scores for IL23 and IL22 in colonic biopsies.
Although IL23 and IL22 responsive transcriptional programs were enriched at population level in UC patients, there was considerable variation in magnitude of enrichment. Since it was unlikely that this variation was being driven by differences in disease severity (all patients in the UNIFI trial program had moderate to severe UC, with Mayo endoscopy subscores of either 2 or 3), the possibility that this molecular heterogeneity might represent important differences in underlying disease immunobiology was considered. If molecular stratification of UC patients according to the magnitude of IL23/IL22 responsive transcript enrichment was biologically and/or clinically meaningful, it was reasoned that UC patients with different degrees of enrichment would experience different outcomes and follow different trajectories. To test this hypothesis, patients from the UNIFI trial program were stratified according to IL23 or IL22 enrichment scores (in colonic biopsies sampled immediately prior initiation with ustekinumab), and whether these differences in molecular phenotype impacted treatment response were evaluated. Enrichment scores in colonic tissue, for both cytokines, could differentiate responders and non-responders to ustekinumab induction therapy (including patients on 130 mg and 6 mg/kg dose), although, the IL22-responsive transcriptional program was especially discriminatory (FIGS. 3D-3F and FIGS. 5A-5D). […]

[3] = patients with low IL22 enrichment scores (ES<0)

IL13: human recombinant IL13 (10 ng/mL) used on human colonoids
regulation of chemokine expression (human colonoids): strongly upregulate both eosinophil-active chemokines CCL24 and CCL26

IL23: recombinant IL23 (10 ng/ml, Biolegend) used to stimulate LPMC
GZMB transcript fold change ([1]; IL23 10 ng/ml, 4 hours): 1.40
IFNG transcript fold change ([1]; IL23 10 ng/ml, 4 hours): 1.77
IL17A transcript fold change ([1]; IL23 10 ng/ml, 4 hours): 1.24
IL17F transcript fold change ([1]; IL23 10 ng/ml, 4 hours): 1.70
IL22 transcript fold change ([1]; IL23 10 ng/ml, 4 hours): 1.69
TNFRSF8 transcript fold change ([1]; IL23 10 ng/ml, 4 hours): 1.41
differentially expressed transcripts ([1]; filtered at P<0.01): 222 transcripts
downregulated transcripts ([1]; filtered at P<0.01): 110
upregulated transcripts ([1]; filtered at P<0.01): 112

ustekinumab: monoclonal antibody blocking the p40 subunit shared by IL-12 and IL-23; heavy chain SEQ ID NO:10, light chain SEQ ID NO:11
outcomes in UC patients with high IL22 enrichment scores ([2]; high IL22 enrichment scores): broadly comparable to placebo treated patients
clinical remission [2, 3]: 26.6%
deep remission (clinical, endoscopic and histologic remission) [2, 3]: 22.7%
mucosal healing [2, 3]: 25.9%
deep remission (clinical, endoscopic and histologic remission) ([2]; unstratified UC patients): 11.7%
mucosal healing ([2]; unstratified UC patients): 15.6%
clinical remission ([2]; unstratified UC patients, ustekinumab induction 130 mg and 6 mg/kg pooled): 13.4%

B1: IFNγ: human recombinant IFNγ (20 ng/mL) used on human colonoids (protein, UniProt P01579 24-161, looked up)
Interferon gamma: QDPYVKEAENLKKYFNAGHSDVADNGTLFLGILKNWKEESDRKIMQSQIVSFYFKLFKNFKDDQSIQKSVETIKEDMNVKFFNSNKKKRDDFEKLTNYSVTDLNVQRKAIHELIQVMAELSPAAKTGKRKRSQMLFRG
regulation of chemokine expression (human colonoids): strongly upregulated CXCL9 and CXCL10
